Assay results as given in patent US7585976B2, “Hemiasterlin derivatives and uses thereof” (priority 2002, dated 2009).

Assay: Screening profile of desired properties (growth inhibition, MDR, cytotoxicity, mouse serum stability, mitotic block reversibility, xenografts)
Settings: properties (i)-(vii)
Description: In certain embodiments, compounds of the invention were tested for in vitro and in vivo activity. Screening methods included standard in vitro cell growth inhibition assays using a panel of human cancer cell lines, a U937 (ATCC accession number CRL 1593) mitotic block reversibility assay, mouse serum stability assay, MDR assay, and cytotoxicity assay. In certain other emdodiments, compounds of the invention were evaluated in tumor xenograft in vivo growth inhibition assays.

| Structure (SMILES) | desired properties (growth inhibition IC50, resistance ratio, cytotoxicity in non-dividing cells, mouse serum stability, reversibility ratio, tumor regression, T/C) |
| --- | --- |
| CC(C)OC(=O)[C@@H]1CCCN1C(=O)[C@@H]1CCCN1C[C@H](C(C)C)N(C)C(=O)[C@@H](NC(=O)C1CCCCN1C)C(C)(C)C (some centres unmarked) [ER-807904] | exhibiting desired properties |
| CN[C@H](C(=O)N[C@H](C(=O)N(C)[C@H](CN1CCC[C@H]1C(=O)N1CCC[C@H]1C(N)=O)C(C)C)C(C)(C)C)C(C)(C)c1ccccc1 [ER-807328] | exhibiting desired properties |
| CN[C@H](C(=O)N[C@H](C(=O)N(C)[C@H](/C=C(\C)C(=O)N1CCC[C@H]1C(=O)OC)C(C)C)C(C)(C)C)C(C)(C)c1ccccc1 [ER-805736] | exhibiting desired properties |
| CN[C@H](C(=O)N[C@H](C(=O)N(C)[C@H](/C=C(\C)C(=O)O)C(C)C)C(C)(C)C)C(C)(C)c1ccc(OCc2ccccc2)cc1 [ER-805913] | exhibiting desired properties |
| C/C(=C\[C@H](C(C)C)N(C)C(=O)[C@@H](NC(=O)[C@H]1CCCCN1C)C(C)(C)C)C(=O)O [ER-807102] | exhibiting desired properties |
| C/C(=C\[C@H](C(C)C)N(C)C(=O)[C@@H](NC(=O)[C@H]1CCCCN1C(C)C(C)C)C(C)(C)C)C(=O)O (single isomer, unassigned) [ER-808662] | exhibiting desired properties |
| CCC(CC)(NC)C(=O)N[C@H](C(=O)N(C)[C@H](/C=C(\C)C(=O)O)C(C)C)C(C)(C)C [ER-807850] | exhibiting desired properties |
| CCC(C)N1CCCC[C@@H]1C(=O)N[C@H](C(=O)N(C)[C@H](/C=C(\C)C(=O)O)C(C)C)C(C)(C)C (some centres unmarked) [ER-808368] | exhibiting desired properties |
| C/C(=C\[C@H](C(C)C)N(C)C(=O)[C@@H](NC(=O)[C@H]1CCCCN1C(C)C)C(C)(C)C)C(=O)O [ER-807974] | exhibiting desired properties |
| CN[C@H](C(=O)N[C@H](C(=O)N(C)[C@H](CN(C)CC(=O)N1CCC[C@H]1C(=O)OC)C(C)C)C(C)(C)C)C(C)(C)c1ccccc1 [ER-806925] | exhibiting desired properties |
| CCC(C)N1CCCC[C@@H]1C(=O)N[C@H](C(=O)N(C)[C@H](/C=C(\C)C(=O)O)C(C)C)C(C)C (some centres unmarked) [ER-808824] | exhibiting desired properties |
